Earlier results, collected in patent publication US6479458B1, “Targeting the reverse mode of the Na+/Ca2+ exchanger for the treatment of optic neuropathy associated with glaucoma and ischemic optic neuropathy” (Allergan, Inc., priority 2001, dated 2002).

Columns and labels:
[1] = tested on: Na+/Ca2+ exchanger; conditions: variety of cell types including neurons
[2] = tested on: sodium-calcium exchange

In the case of `CS(=O)(=O)O.N=C(N)SCCc1ccc(OCc2ccc([N+](=O)[O-])cc2)cc1` [KB-R743], the “block of the reverse mode of the Na+/Ca2+ exchanger” value [1] is given as “preferentially block the reverse mode”.

In the case of cyclosporin A, the “inhibition of sodium-calcium exchange” value [2] is given as “specific activity in the inhibition of sodium-calcium exchange”.
